This assay concerns MV-4-11 cells. The assay is described as follows: Gene expression microarray analysis (Affymetrix PrimeView) and GSEA. Format: cell-based, human. Further details: RFU PODN (11730768_x_at) / Fold change /veh PODN (11730768_x_at) / RFU LINC00158 (11744669_a_at) / Fold change /veh LINC00158 (11744669_a_at) / RFU DUSP10 (11751237_a_at) / Fold change /veh DUSP10 (11751237_a_at) / RFU ID3 (11757404_x_at) / Fold change /veh ID3 (11757404_x_at) / RFU PLEKHG5 (11737974_s_at) / Fold change /veh PLEKHG5 (11737974_s_at) / RFU LRRC4B (11730491_at) / Fold change /veh LRRC4B (11730491_at) / RFU GIMAP4 (11747438_a_at) / Fold change /veh GIMAP4 (11747438_a_at) / RFU KRT8 (11758183_x_at) / Fold change /veh KRT8 (11758183_x_at) / RFU CNN1 (11734310_a_at) / Fold change /veh CNN1 (11734310_a_at) / RFU VPS37D (11726825_at) / Fold change /veh VPS37D (11726825_at) / RFU C10orf10 (11716522_x_at) / Fold change /veh C10orf10 (11716522_x_at) / RFU KIR2DL2 /// KIR2DL4 /// KIR2DL5A /// KIR2DL5B /// KIR2DS1 /// KIR2DS2 /// KIR2DS3 /// KIR2DS4 /// KIR3DL3 /// KIR3DL3 /// KIR3DS1 (11738374_at) / Fold change /veh KIR2DL2 /// KIR2DL4 /// KIR2DL5A /// KIR2DL5B /// KIR2DS1 /// KIR2DS2 /// KIR2DS3 /// KIR2DS4 /// KIR3DL3 /// KIR3DL3 /// KIR3DS1 (11738374_at) / RFU C1QL1 (11718748_at) / Fold change /veh C1QL1 (11718748_at) / RFU TMPRSS4 (11747572_a_at) / Fold change /veh TMPRSS4 (11747572_a_at) / RFU HAMP (11756126_x_at) / Fold change /veh HAMP (11756126_x_at) / RFU RNFT2 (11725882_a_at) / Fold change /veh RNFT2 (11725882_a_at) / RFU NR4A2 (11747474_a_at) / Fold change /veh NR4A2 (11747474_a_at) / RFU ABCC12 (11746883_a_at) / Fold change /veh ABCC12 (11746883_a_at) / RFU TMEM136 (11760407_x_at) / Fold change /veh TMEM136 (11760407_x_at) / RFU CLDN22 /// WWC2 (11732394_at) / Fold change /veh CLDN22 /// WWC2 (11732394_at) / RFU HLA-DPB1 (11760878_x_at) / Fold change /veh HLA-DPB1 (11760878_x_at) / RFU SPINT1 (11716480_a_at) / Fold change /veh SPINT1 (11716480_a_at) / RFU GAP43 (11754022_s_at) / Fold change /veh GAP43 (11754022_s_at) / RFU A4GNT (11735810_at) / Fold change /veh A4GNT (11735810_at) / RFU PRB3 (11715151_x_at) / Fold change /veh PRB3 (11715151_x_at) / RFU TUBB4B (11761932_at) / Fold change /veh TUBB4B (11761932_at) / RFU CAPN14 (11732068_a_at) / Fold change /veh CAPN14 (11732068_a_at) / RFU TMCC2 (11721928_a_at) / Fold change /veh TMCC2 (11721928_a_at) / RFU IRGQ (11745062_a_at) / Fold change /veh IRGQ (11745062_a_at) / RFU FAM174B (11720279_a_at) / Fold change /veh FAM174B (11720279_a_at) / RFU TMPRSS4 (11748680_a_at) / Fold change /veh TMPRSS4 (11748680_a_at) / RFU FAM212B (11763350_a_at) / Fold change /veh FAM212B (11763350_a_at) / RFU PLEKHG5 (11743358_a_at) / Fold change /veh PLEKHG5 (11743358_a_at) / RFU ZSCAN30 (11745921_a_at) / Fold change /veh ZSCAN30 (11745921_a_at) / RFU CMKLR1 (11741424_a_at) / Fold change /veh CMKLR1 (11741424_a_at) / RFU LOC101060620 /// MAPK8IP1 (11723275_at) / Fold change /veh LOC101060620 /// MAPK8IP1 (11723275_at) / RFU SPTSSB (11747773_x_at) / Fold change /veh SPTSSB (11747773_x_at) / RFU PRSS12 (11739890_at) / Fold change /veh PRSS12 (11739890_at) / RFU BIN1 (11741810_x_at) / Fold change /veh BIN1 (11741810_x_at) / RFU WNT11 (11732464_a_at) / Fold change /veh WNT11 (11732464_a_at) / RFU C10orf10 (11716521_a_at) / Fold change /veh C10orf10 (11716521_a_at) / RFU C5orf56 (11738089_at) / Fold change /veh C5orf56 (11738089_at) / RFU CYB561 (11721691_x_at) / Fold change /veh CYB561 (11721691_x_at) / RFU ANKRD19P (11752326_a_at) / Fold change /veh ANKRD19P (11752326_a_at) / RFU OR2T12 /// OR2T33 /// OR2T8 (11738714_s_at) / Fold change /veh OR2T12 /// OR2T33 /// OR2T8 (11738714_s_at) / RFU VCAN (11748164_a_at) / Fold change /veh VCAN (11748164_a_at) / RFU JSRP1 (11732532_at) / Fold change /veh JSRP1 (11732532_at) / RFU KRTAP10-11 (11738290_x_at) / Fold change /veh KRTAP10-11 (11738290_x_at) / RFU MYO3A (11730013_a_at) / Fold change /veh MYO3A (11730013_a_at) / RFU EBF3 (11725865_a_at) / Fold change /veh EBF3 (11725865_a_at) / RFU CAMK2N1 (11719241_x_at) / Fold change /veh CAMK2N1 (11719241_x_at) / RFU C5orf56 (11738088_a_at) / Fold change /veh C5orf56 (11738088_a_at) / RFU OLFML3 (11715873_a_at) / Fold change /veh OLFML3 (11715873_a_at) / RFU LOC100653217 /// NTM (11731650_a_at) / Fold change /veh LOC100653217 /// NTM (11731650_a_at) / RFU MAPK11 (11762145_a_at) / Fold change /veh MAPK11 (11762145_a_at) / RFU FIZ1 (11724087_x_at) / Fold change /veh FIZ1 (11724087_x_at) / RFU OASL (11726364_x_at) / Fold change /veh OASL (11726364_x_at) / RFU SOX15 (11748057_x_at) / Fold change /veh SOX15 (11748057_x_at) / RFU CD79A (11719716_a_at) / Fold change /veh CD79A (11719716_a_at) / RFU HIST1H1D (11736915_at) / Fold change /veh HIST1H1D (11736915_at) / RFU CASKIN2 (11723855_a_at) / Fold change /veh CASKIN2 (11723855_a_at) / RFU LOC730098 (11760151_x_at) / Fold change /veh LOC730098 (11760151_x_at) / RFU OR4N2 (11742367_at) / Fold change /veh OR4N2 (11742367_at) / RFU PRRT2 (11749266_a_at) / Fold change /veh PRRT2 (11749266_a_at) / RFU SNX32 (11753110_a_at) / Fold change /veh SNX32 (11753110_a_at) / RFU CDHR5 (11726645_a_at) / Fold change /veh CDHR5 (11726645_a_at) / RFU RCAN1 (11760418_a_at) / Fold change /veh RCAN1 (11760418_a_at) / RFU FAM167A (11723789_a_at) / Fold change /veh FAM167A (11723789_a_at) / RFU FAM26E (11764081_at) / Fold change /veh FAM26E (11764081_at) / RFU ISYNA1 (11749810_s_at) / Fold change /veh ISYNA1 (11749810_s_at) / RFU ACY1 (11761880_at) / Fold change /veh ACY1 (11761880_at) / RFU 11764098_at / Fold change /veh 11764098_at / RFU SAMD14 (11745864_x_at) / Fold change /veh SAMD14 (11745864_x_at) / RFU NPB (11741838_a_at) / Fold change /veh NPB (11741838_a_at) / RFU TMPRSS6 (11731388_a_at) / Fold change /veh TMPRSS6 (11731388_a_at) / RFU KRTAP10-2 (11738614_at) / Fold change /veh KRTAP10-2 (11738614_at) / RFU ARHGAP8 /// PRR5-ARHGAP8 (11727945_x_at) / Fold change /veh ARHGAP8 /// PRR5-ARHGAP8 (11727945_x_at) / RFU KRTAP5-7 /// NADSYN1 (11734609_at) / Fold change /veh KRTAP5-7 /// NADSYN1 (11734609_at) / RFU RASL12 (11751679_a_at) / Fold change /veh RASL12 (11751679_a_at) / RFU CDKN2B (11736163_a_at) / Fold change /veh CDKN2B (11736163_a_at) / RFU PRF1 (11729649_at) / Fold change /veh PRF1 (11729649_at) / RFU, ZNF638 /// ZNF638-IT1 / Fold change vs veh, ZNF638 /// ZNF638-IT1 / RFU, PANK3 / Fold change vs veh, PANK3 / RFU, SH3YL1 / Fold change vs veh, SH3YL1 / RFU, ZEB2 / Fold change vs veh, ZEB2 / RFU, NRIP1 / Fold change vs veh, NRIP1 / RFU, PTTG1IP / Fold change vs veh, PTTG1IP / RFU, CAPN2 / Fold change vs veh, CAPN2 / RFU, MED14 / Fold change vs veh, MED14 / RFU, SNORA58 / Fold change vs veh, SNORA58 / RFU, C1orf63 / Fold change vs veh, C1orf63 / RFU, LRRFIP1 / Fold change vs veh, LRRFIP1 / RFU, NDUFAF7 / Fold change vs veh, NDUFAF7 / RFU, SLC12A2 / Fold change vs veh, SLC12A2 / RFU, IBTK / Fold change vs veh, IBTK / RFU, ESF1 / Fold change vs veh, ESF1 / Fold change vs veh, TMEM50B / RFU, TAOK1 / Fold change vs veh, TAOK1 / RFU, ACBD3 / Fold change vs veh, ACBD3 / RFU, TMA16 / Fold change vs veh, TMA16 / RFU, RWDD3 / Fold change vs veh, RWDD3 / RFU, BCAT1 / Fold change vs veh, BCAT1 / RFU, EDEM3 / Fold change vs veh, EDEM3 / RFU, TMEM33 / Fold change vs veh, TMEM33 / RFU, WDR75 / Fold change vs veh, WDR75 / RFU, AHCTF1 / Fold change vs veh, AHCTF1 / RFU, TFRC / Fold change vs veh, TFRC / RFU, ZDHHC17 / Fold change vs veh, ZDHHC17 / RFU, NOM1 / Fold change vs veh, NOM1 / RFU, ARL8B / Fold change vs veh, ARL8B / RFU, ZBTB11 / Fold change vs veh, ZBTB11 / RFU, TAMM41 / Fold change vs veh, TAMM41 / RFU, KIAA1704 /// LOC100996395 / Fold change vs veh, KIAA1704 /// LOC100996395 / RFU, ING1 / Fold change vs veh, ING1 / RFU, TRMT61B / Fold change vs veh, TRMT61B / RFU, FUBP3 / Fold change vs veh, FUBP3 / RFU, TP53 / Fold change vs veh, TP53 / RFU, TNKS2 / Fold change vs veh, TNKS2 / RFU, ZFP14 / Fold change vs veh, ZFP14 / RFU, ACTR2 / Fold change vs veh, ACTR2 / RFU, PPP3R1 / Fold change vs veh, PPP3R1 / RFU, PIK3R1 / Fold change vs veh, PIK3R1 / RFU, HNRNPA1 / Fold change vs veh, HNRNPA1 / RFU, RNF170 / Fold change vs veh, RNF170 / RFU, ZNF28 / Fold change vs veh, ZNF28 / RFU, RNGTT / Fold change vs veh, RNGTT / RFU, OGT / Fold change vs veh, OGT / RFU, BRD1 / Fold change vs veh, BRD1 / RFU, MARS / Fold change vs veh, MARS / RFU, ZNF655 / Fold change vs veh, ZNF655 / RFU, FAHD1 / Fold change vs veh, FAHD1 / RFU, BDP1 / Fold change vs veh, BDP1 / RFU, LRRCC1 / Fold change vs veh, LRRCC1 / RFU, ARID1A / Fold change vs veh, ARID1A / RFU, ZNF146 / Fold change vs veh, ZNF146 / RFU, ZNF330 / Fold change vs veh, ZNF330 / RFU, GPN3 / Fold change vs veh, GPN3 / RFU, C9orf123 / Fold change vs veh, C9orf123 / RFU, N4BP2L2 / Fold change vs veh, N4BP2L2 / RFU, ARFIP1 / Fold change vs veh, ARFIP1 / RFU, FAM179B / Fold change vs veh, FAM179B / RFU, BCL10 / Fold change vs veh, BCL10 / RFU, UHRF1BP1L / Fold change vs veh, UHRF1BP1L / RFU, BET1 / Fold change vs veh, BET1 / RFU, CNOT2 / Fold change vs veh, CNOT2 / RFU, ZNF268 / Fold change vs veh, ZNF268 / Fold change vs veh, ZNF507 / RFU, DGCR2 / Fold change vs veh, DGCR2 / RFU, WDSUB1 / Fold change vs veh, WDSUB1 / Fold change vs veh, HSP90B1 /// MIR3652 / RFU, ADSS / Fold change vs veh, ADSS / RFU, GK / Fold change vs veh, GK / RFU, ZNF148 / Fold change vs veh, ZNF148 / RFU, TAF9 / Fold change vs veh, TAF9 / RFU, SLC1A5 / Fold change vs veh, SLC1A5 / RFU, SLMO2 / Fold change vs veh, SLMO2 / RFU, ABCC4 / Fold change vs veh, ABCC4 / RFU, LOC101060439 /// RAP1B / Fold change vs veh, LOC101060439 /// RAP1B / RFU, RFX7 / Fold change vs veh, RFX7 / RFU, GTPBP10 / Fold change vs veh, GTPBP10 / RFU, CNEP1R1 / Fold change vs veh, CNEP1R1 / RFU, BIVM-ERCC5 /// ERCC5 / Fold change vs veh, BIVM-ERCC5 /// ERCC5 / RFU, ILF3 / Fold change vs veh, ILF3 / RFU 11762660_at / Fold change /veh 11762660_at / RFU VCAN (11757783_s_at) / Fold change /veh VCAN (11757783_s_at) / RFU DDX43 (11728927_at) / Fold change /veh DDX43 (11728927_at) / RFU KRT8 (11758188_x_at) / Fold change /veh KRT8 (11758188_x_at) / RFU NKD1 (11759106_at) / Fold change /veh NKD1 (11759106_at) / RFU SRD5A1 (11742802_a_at) / Fold change /veh SRD5A1 (11742802_a_at) / RFU TPSAB1 /// TPSB2 (11721975_s_at) / Fold change /veh TPSAB1 /// TPSB2 (11721975_s_at) / RFU GSTM3 (11746129_a_at) / Fold change /veh GSTM3 (11746129_a_at) / RFU IL23R (11737362_x_at) / Fold change /veh IL23R (11737362_x_at) / RFU TMEM51 (11727254_a_at) / Fold change /veh TMEM51 (11727254_a_at) / RFU PIWIL2 (11732686_x_at) / Fold change /veh PIWIL2 (11732686_x_at) / RFU ORM1 (11744905_x_at) / Fold change /veh ORM1 (11744905_x_at) / RFU CCDC152 (11743942_at) / Fold change /veh CCDC152 (11743942_at) / RFU ECM1 (11717891_a_at) / Fold change /veh ECM1 (11717891_a_at) / RFU IL23R (11748794_a_at) / Fold change /veh IL23R (11748794_a_at) / RFU TNFAIP8L3 (11732012_x_at) / Fold change /veh TNFAIP8L3 (11732012_x_at) / RFU MBOAT4 (11741988_at) / Fold change /veh MBOAT4 (11741988_at) / RFU 11764193_at / Fold change /veh 11764193_at / RFU TMEM53 (11763286_at) / Fold change /veh TMEM53 (11763286_at) / RFU MAGEB2 (11727129_at) / Fold change /veh MAGEB2 (11727129_at) / RFU TMEM200A (11744735_a_at) / Fold change /veh TMEM200A (11744735_a_at) / RFU CCDC152 (11751479_a_at) / Fold change /veh CCDC152 (11751479_a_at) / RFU FAM211A (11726209_a_at) / Fold change /veh FAM211A (11726209_a_at) / RFU RGS16 (11746705_a_at) / Fold change /veh RGS16 (11746705_a_at) / RFU VCAN (11755009_s_at) / Fold change /veh VCAN (11755009_s_at) / RFU RHOB (11743442_s_at) / Fold change /veh RHOB (11743442_s_at) / RFU RGS16 (11720943_a_at) / Fold change /veh RGS16 (11720943_a_at) / RFU RGS16 (11720944_at) / Fold change /veh RGS16 (11720944_at) / RFU, VPS4B / Fold change vs veh, VPS4B / RFU, CREB1 / Fold change vs veh, CREB1 / RFU, DNAJC13 / Fold change vs veh, DNAJC13 / RFU, GNAQ / Fold change vs veh, GNAQ / RFU, CDK5R1 / Fold change vs veh, CDK5R1 / RFU, ZRANB3 / Fold change vs veh, ZRANB3 / RFU, CUL4A / Fold change vs veh, CUL4A / RFU, CCNY / Fold change vs veh, CCNY / RFU, UFL1 / Fold change vs veh, UFL1 / RFU, COG3 / Fold change vs veh, COG3 / RFU, DIAPH2 / Fold change vs veh, DIAPH2 / RFU, SKA2 / Fold change vs veh, SKA2 / RFU, AFF3 / Fold change vs veh, AFF3 / RFU, LMF1 / Fold change vs veh, LMF1 / RFU, IPO11 / Fold change vs veh, IPO11 / RFU, DFFB / Fold change vs veh, DFFB / RFU, FOXP1 / Fold change vs veh, FOXP1 / RFU, CARD8 / Fold change vs veh, CARD8 / RFU, STRN3 / Fold change vs veh, STRN3 / RFU, ADK / Fold change vs veh, ADK / RFU, RASSF2 / Fold change vs veh, RASSF2 / RFU, WIPF1 / Fold change vs veh, WIPF1 / RFU, LARP1B / Fold change vs veh, LARP1B / RFU, RASA1 / Fold change vs veh, RASA1 / RFU, RB1 / Fold change vs veh, RB1 / RFU, PPFIA1 / Fold change vs veh, PPFIA1 / RFU, MAT2A / Fold change vs veh, MAT2A / RFU, CCT5 / Fold change vs veh, CCT5 / RFU, WDR92 / Fold change vs veh, WDR92 / RFU, CUX1 / Fold change vs veh, CUX1 / RFU, TTC7A / Fold change vs veh, TTC7A / RFU, TMEM135 / Fold change vs veh, TMEM135 / RFU, DEPTOR / Fold change vs veh, DEPTOR / RFU, CPM / Fold change vs veh, CPM / RFU, DNAJB6 / Fold change vs veh, DNAJB6 / RFU, CACNA2D3 / Fold change vs veh, CACNA2D3 / RFU, DTX4 / Fold change vs veh, DTX4 / RFU, TFCP2 / Fold change vs veh, TFCP2 / RFU, GMCL1 /// GMCL1P1 / Fold change vs veh, GMCL1 /// GMCL1P1 / RFU, AEBP2 / Fold change vs veh, AEBP2 / RFU, SNHG1 /// SNORD22 /// SNORD25 /// SNORD26 /// SNORD27 /// SNORD28 /// SNORD29 /// SNORD31 / Fold change vs veh, SNHG1 /// SNORD22 /// SNORD25 /// SNORD26 /// SNORD27 /// SNORD28 /// SNORD29 /// SNORD31 / Fold change (Aza/veh), C12orf56 (ProbeSet 11735607_a_at) / Fold change (ACY-1035/veh), C12orf56 (ProbeSet 11735607_a_at) / Fold change (Aza/veh), FGFR1OP (ProbeSet 11751329_s_at) / Fold change (ACY-1035/veh), FGFR1OP (ProbeSet 11751329_s_at) / Fold change (Aza/veh), VPS36 (ProbeSet 11739960_a_at) / Fold change (ACY-1035/veh), VPS36 (ProbeSet 11739960_a_at) / RFU SYPL1 (11715823_x_at) / Fold change /veh SYPL1 (11715823_x_at) / RFU IGFBP7 (11715501_s_at) / Fold change /veh IGFBP7 (11715501_s_at) / RFU REEP3 (11722064_at) / Fold change /veh REEP3 (11722064_at) / RFU IGLL1 (11728026_x_at) / Fold change /veh IGLL1 (11728026_x_at): dose or concentration left out as unconfirmed. The note with it: MV-4-11 cells, 48 hours.

Turning to `Nc1ncn([C@@H]2O[C@H](CO)[C@@H](O)[C@H]2O)c(=O)n1` [azacitidine], the “RFU MAGEB2 (11727129_at)” value turned out to be 14.25 RFU.

The values are drawn from PMC5218480 (PLoS ONE, 2017).
